Patent US20090143279A1 (priority 2007, published 2009)
Read-outs that look alike come from different tables or passages of the source.

What was measured:
[1] = tested on: mitochondrial membrane potential; format: cell-based, mouse
reactive oxygen species = format: cell-based, mouse
OXPHOS gene expression = format: cell-based, mouse
nuOXPHOS transcripts = format: cell-based, mouse
mtOXPHOS transcripts = format: cell-based, mouse
cytochrome c = format: cell-based, mouse
[2] = tested on: cellular dehydrogenase activity
[3] = composite Z-score vs DMSO, Conc 20 μM
[4] = normalized composite Z-score vs mock-treated (DMSO) wells, Conc 20 μM
[5] = composite Z-score vs mock-treated (DMSO) wells, Conc 20 μM
[6] = composite Z-score vs DMSO wells, Conc 20 μM
[7] = composite Z-score vs DMSO, Conc 8 μM
[8] = Conc 20 μM, normalized score vs mock-treated (DMSO) wells
[9] = 20 μM, composite Z-score vs DMSO

N=C(N)N.N=C(N)N.O=C(O)O [guanidine carbonate]
ΔΨm [1, 3]: −0.252 | ROS (reactive oxygen species; [3]): 0.401 | GE-HTS (OXPHOS gene expression; [3]): −1.142 | nucOX (nuOXPHOS transcripts; [3]): −1.112 | mitoOX (mtOXPHOS transcripts; [3]): −0.993 | cyt c (cytochrome c; [3]): −1.206 | Viability (C2C12 myotubes; [3]): −0.835 | MTT [2, 3]: −0.683

Cc1cc(OC(=O)c2c(C)cc(OC(=O)c3c(C)cc(O)cc3O)cc2O)cc(O)c1C(=O)O [gyrophoric acid]
ΔΨm [1, 4]: −0.842 | ROS (reactive oxygen species; [4]): 0.897 | GE-HTS (OXPHOS gene expression; [4]): −0.471 | nucOX (nuOXPHOS transcripts; [4]): −0.546 | mitoOX (mtOXPHOS transcripts; [4]): −0.289 | cyt c (cytochrome c; [4]): −0.557 | Viability (C2C12 myotubes; [4]): −0.579 | MTT [2, 4]: −0.977

CCOC(=O)c1c(C)cc(O)c(C=O)c1O [haematommic acid, ethyl ester]
ΔΨm [1, 5]: −0.120 | ROS (reactive oxygen species; [5]): 0.478 | GE-HTS (OXPHOS gene expression; [5]): 0.450 | nucOX (nuOXPHOS transcripts; [5]): 0.387 | mitoOX (mtOXPHOS transcripts; [5]): 0.537 | cyt c (cytochrome c; [5]): −0.104 | Viability (C2C12 myotubes; [5]): −0.557 | MTT [2, 5]: −0.761

Cc1cc(O)c(C=O)c(O)c1C(=O)O [haematommic acid]
ΔΨm [1, 3]: 0.002 | ROS (reactive oxygen species; [3]): −1.077 | GE-HTS (OXPHOS gene expression; [3]): −0.410 | nucOX (nuOXPHOS transcripts; [3]): −0.078 | mitoOX (mtOXPHOS transcripts; [3]): −1.067 | cyt c (cytochrome c; [3]): 0.631 | Viability (C2C12 myotubes; [3]): −0.412 | MTT [2, 3]: −0.740

CC1=C(CCC(=O)O)c2cc3[nH]c(cc4nc(cc5[nH]c(cc1n2)c(C)c5C(C)O)C(C)=C4C(C)O)c(C)c3CCC(=O)O (stereo not drawn) [haematoporphyrin]
ΔΨm [1, 3]: −3.662 | ROS (reactive oxygen species; [3]): 1.666 | GE-HTS (OXPHOS gene expression; [3]): 0.309 | nucOX (nuOXPHOS transcripts; [3]): 0.251 | mitoOX (mtOXPHOS transcripts; [3]): 0.416 | cyt c (cytochrome c; [3]): 0.324 | Viability (C2C12 myotubes; [3]): −1.933 | MTT [2, 3]: −3.312

O=C(O)c1ccc(S(=O)(=O)N(Cl)Cl)cc1 [halazone]
ΔΨm [1, 6]: −0.334 | ROS (reactive oxygen species; [6]): 0.779 | GE-HTS (OXPHOS gene expression; [6]): 0.565 | nucOX (nuOXPHOS transcripts; [6]): 0.593 | mitoOX (mtOXPHOS transcripts; [6]): 0.385 | cyt c (cytochrome c; [6]): −0.942 | Viability (C2C12 myotubes; [6]): −0.242 | MTT [2, 6]: −0.445

CC1(C)O[C@@H]2C[C@H]3[C@@H]4CCC5=CC(=O)CC[C@]5(C)[C@@]4(F)[C@@H](O)C[C@]3(C)[C@]2(C(=O)CCl)O1 [halcinonide]
ΔΨm [1, 3]: 0.570 | ROS (reactive oxygen species; [3]): 0.624 | GE-HTS (OXPHOS gene expression; [3]): 0.492 | nucOX (nuOXPHOS transcripts; [3]): 0.284 | mitoOX (mtOXPHOS transcripts; [3]): 0.831 | cyt c (cytochrome c; [3]): −0.794 | Viability (C2C12 myotubes; [3]): 0.106 | MTT [2, 3]: −0.789

CCCCN(CCCC)CCC(O)c1cc2c(Cl)cc(Cl)cc2c2cc(C(F)(F)F)ccc12 (stereo not drawn) [halofantrine]
ΔΨm [1, 7]: −0.668 | ROS (reactive oxygen species; [7]): 0.012 | GE-HTS (OXPHOS gene expression; [7]): −0.508 | nucOX (nuOXPHOS transcripts; [7]): −0.239 | mitoOX (mtOXPHOS transcripts; [7]): −0.969 | cyt c (cytochrome c; [7]): −0.236 | Viability (C2C12 myotubes; [7]): 0.132 | MTT [2, 7]: −0.174

C[C@@H]1O[C@@H](O[C@H]2[C@H](O[C@H]3CC[C@@]4(C)[C@@H](CC[C@]5(C)[C@@H]4CC=C4[C@@H]6CC(C)(C)CC[C@]6(C(=O)O[C@@H]6O[C@H](CO[C@@H]7O[C@H](CO)[C@@H](O[C@@H]8O[C@@H](C)[C@H](O)[C@@H](O)[C@H]8O)[C@H](O)[C@H]7O)[C@@H](O)[C@H](O)[C@H]6O)CC[C@]45C)[C@]3(C)CO)OC[C@H](O)[C@@H]2O)[C@H](O)[C@H](O)[C@H]1O [hederacoside C]
ΔΨm (composite Z-score) [1, 8]: −0.559 | ROS (composite Z-score) (reactive oxygen species; [8]): 0.079 | GE-HTS (composite Z-score) (OXPHOS gene expression; [8]): −0.809 | nucOX (composite Z-score) (nuOXPHOS transcripts; [8]): −0.645 | mitoOX (composite Z-score) (mtOXPHOS transcripts; [8]): −0.952 | cyt c (composite Z-score) (cytochrome c; [8]): 0.471 | Viability (composite Z-score) (C2C12 myotubes; [8]): −0.672 | MTT (composite Z-score) [2, 8]: −1.226

CC1(C)CC[C@]2(C(=O)O)CC[C@]3(C)C(=CC[C@@H]4[C@@]5(C)CC[C@H](O)[C@@](C)(CO)[C@@H]5CC[C@]43C)[C@@H]2C1 [hederagenin]
ΔΨm [1]: −0.901 | ROS (reactive oxygen species): 0.385 | GE-HTS (OXPHOS gene expression): −0.654 | nucOX (nuOXPHOS transcripts): −0.630 | mitoOX (mtOXPHOS transcripts): −0.540 | cyt c (cytochrome c): 0.945 | Viability (C2C12 myotubes): 0.310 | MTT [2]: −1.259

C=C1C(=O)O[C@@H]2C[C@@]3(C)CCC[C@H](C)C3=C[C@H]12 [helenine]
ΔΨm [1, 3]: −3.676 | ROS (reactive oxygen species; [3]): −2.409 | GE-HTS (OXPHOS gene expression; [3]): −2.156 | nucOX (nuOXPHOS transcripts; [3]): −2.240 | mitoOX (mtOXPHOS transcripts; [3]): −1.624 | cyt c (cytochrome c; [3]): −5.312 | Viability (C2C12 myotubes; [3]): −4.599 | MTT [2, 3]: −6.498

COc1ccc([C@@H]2CC(=O)c3c(O)cc(O[C@@H]4O[C@H](CO[C@@H]5O[C@@H](C)[C@H](O)[C@@H](O)[C@H]5O)[C@@H](O)[C@H](O)[C@H]4O)cc3O2)cc1O [hesperidin]
ΔΨm [1, 9]: −0.251 | ROS (reactive oxygen species; [9]): −0.281 | GE-HTS (OXPHOS gene expression; [9]): −0.618 | nucOX (nuOXPHOS transcripts; [9]): −0.106 | mitoOX (mtOXPHOS transcripts; [9]): −1.561 | cyt c (cytochrome c; [9]): 0.621 | Viability (C2C12 myotubes; [9]): 0.694 | MTT [2, 9]: −0.992
